For one data set, the system named is rabbit platelet. As to conditions: Ko et al., Thromb. Res. 57, 453-463, 1990; cited from earlier work.
The subject of data set [1] is washed platelet (thromboxane B2 synthesis). Description: Inhibition of thromboxane A2 production (thromboxane B2 by radioimmunoassay) in collagen-activated platelets. Format: cell-based, rat. Particulars: for Thromboxane B2: DMSO + collagen 98.44 ± 11.52, DMSO + saline 0.82 ± 0.22. As to the method: The ability of producing thromboxane A2 was determined as follow according to the method described in literature [see, Ko, F. N., Sheu, S. J., Liu, Y. M., Huang, T. F., and Teng, C. M., Inhibition of rabbit platelet aggregation by 1,4-naphthoquinones, Thromb. Res. 57, 453-463, 1990]. The experiment was conducted in a plastic cuvette containing 0.5 ml of the washed platelet (3×10^8 platelet/ml) while maintaining the temperature at 37° C. First, the washed platelet was pre-treated with the compound of the present invention, NQ-Y15, for 8 minutes and then collagen was added thereto. After incubation for 5 minutes, the reaction was allowed to stop by adding 2 mM ethylenediamine tetraacetic acid and 50 μM indomethacin. This mixture was centrifuged under 12,000×g at room temperature for 2 minutes to separate the supernatant which was then stored at -20° C. Since thromboxane A2 has a unstable structure and therefore, is immediately converted into a stable thromboxane B2, the production of thromboxane B2 as an index for the thromboxane A2 production was measured by radioimmunoassay.

In data set [2] the test system is washed platelet. Description: Inhibition of platelet aggregation induced by platelet agonists (aggregometer, light transmission, method of Born). As to conditions: for IC50: washed platelet, 37° C., read-out: concentration by which the platelet aggregation induced by agonists is reduced by 50%. The data set is classed as cell-based, rat. Here is the method:
Blood was taken from abdominal aorta of rat using a syringe in which sodium citrate (final content 0.38%) was previously filled, and centrifuged under 160×g at room temperature for 15 minutes to obtain the platelet rich plasma as the supernatant. This platelet rich plasma was centrifuged again under 1500×g for 15 minutes to obtain the precipitate which was then washed three times with a washing buffer solution (129 mM sodium chloride, 0.8 mM dipotassium hydrogenphosphate, 8.9 mM sodium carbonate, 2.8 mM potassium chloride, 0.8 mM magnesium chloride, 5.6 mM glucose, 10 mM N-[2-hydroxyethyl]-piperazine-N'-[2-ethanesulfonic acid], acidity pH 7.4) containing 2 mM ethylenediamine tetraacetic acid to remove protein and calcium from the plasma. This […] was then carefully re-suspended in a modified Tyrode's buffer solution (129 mM sodium chloride, 0.8 mM dipotassium hydrogenphosphate, 8.9 mM sodium carbonate, 2.8 mM potassium chloride, 0.8 mM magnesium chloride, 5.6 mM glucose, 10 mM N-[2-hydroxyethyl]piperazine-N-'-[2-ethanesulfonic acid], acidity pH 7.4) containing 0.35% bovine serum albumin to obtain the washed platelet.
In this experiment, the platelet aggregation ability was determined by measuring a change in light transmission depending on turbidity change by means of an apparatus for measuring platelet aggregation ability (Chronolog Co.: Pennsylvania, Harvertown) according to a method of Born (see, Born, G. V. R., Nature, 194, 927, 1962). As the control, the light transmission degree for the plasma having substantially no platelet was used. 495 μl of the platelet rich plasma prepared in the above (1) was added to a cuvette for aggregometer, which has a silicon-treated surface. This cuvette was pre-treated by inserting it into a cuvette channel which is maintained at 37° C. and retaining for 30 seconds. Then, 2.5 μl of the compound according to the present invention, NQ-Y15 (final concentration 10^-4 M), dissolved in dimethylsulfoxide was added to the cuvette. The reaction was conducted again at 37° C. for 8 minutes. Then, the change in light transmission developed by adding 2.5 μl of thrombin (final concentration 0.5U/ml) thereto was measured for 10 minutes.
In addition, 495 μl of the washed platelet prepared in the above (1) was pre-treated for 30 seconds at 37° C. according to the same procedure as above and then 2.5 μl of the compound according to the present invention, NQ-Y15, dissolved in dimethylsulfoxide was added thereto. This mixture was allowed to react for 8 minutes at 37° C. Then, 2.5 μl of the platelet agonist (thrombin 0.1U/ml, collagen 10 μg/ml or calcium ionophore A23187 having the following formula 2 μM) was added to the reaction mixture to induce the platelet aggregation and then the change in light transmission was measured for 10 minutes. In this experiment, the light transmission degree for Tyrode's buffer solution was used as the control. [drawing 7]
The result was determined by calculating the relative ratio of the light transmission degree obtained in each case to the light transmission degree obtained from treatment only with platelet agonists, which is regarded as 100% aggregation.

Data set [3] relates to [14C]-serotonin-loaded platelet (washed platelet). Briefly: Inhibition of 5-[14C]-serotonin secretion from agonist-activated platelets. The data set is classed as cell-based, rat. An excerpt:
Contrary to other cells, platelets contain numerous granules such as dense granule, α-granule, lysosome and peroxisome, each of which preserves very useful physiological substances. When platelet is activated by any stimulus, substances contained in granules are secreted out of the cells through exocytosis. Particularly, dense granule contains adenine nucleotides such as adenosine diphosphate (ADP), adenosine triphosphate (ATP), etc, calcium, serotonin, etc., which are secreted upon aggregation of platelets and then cause irreversible secondary aggregation. Thus, it can be said that irreversible secondary aggregation induced by ADP, thrombin, etc. is the result of such granule secretion. […]
The inhibitory activity of the compound of the present invention against serotonin secretion was determined using [^14 C]-serotonin-loaded platelet according to the method of Huzoor, et. al. (see, Huzoor-Akbar, Patel, S., Kokrady, S., Witiak, D. T., Newman, H. A. I. and Feller, D. R., Biochem. Pharmacol. 30, 2013-2020, 1981). […] This mixture was then centrifuged under 12,000×g at room temperature for 2 minutes to separate the supernatant from which the radioactivity of 5-[^14 C]-serotonin was measured.

Data set [4] deals with washed platelet. Briefly: Excretion of lactic acid dehydrogenase (LDH) from platelets, cytotoxicity. Format: cell-based, rat. Particulars: for Concentration of LDH: NQ-Y15 0.1 mM, Triton X-100 0.1%. The text has this: Lactic acid dehydrogenase (LDH) is an enzyme present in cytoplasm of platelets and is excreted from platelet cytoplasm into extracellular fluid when platelet membrane is injured or cytotoxicity such as cytolysis is induced. Accordingly, it was intended to identify whether the compound of the present invention induces the cytotoxicity by quantitatively measuring lactic acid dehydrogenase excreted after the pre-treatment with the compound of the present invention.
To the washed platelet, dimethylsulfoxide(DMSO) (control group) which can dissolve the compound, NQ-Y15, of the present invention, NQ-Y15 or Triton X-100 (0.1%) which can disrupt the cellular membrane was added. Then, this mixture was centrifuged under 12,000×g at room temperature for 2 minutes to separate the supernatant. To the separated supernatant was added a reagent for measuring lactic acid dehydrogenase LD-L10^R (Sigma) and then the excreted lactic acid dehydrogenase was quantitatively analyzed by means of an automated clinical chemistry analyzer SBA300 (Gilford) which can automatically quantitate lactic acid dehydrogenase.

A further data set relates to human platelet. As to conditions: Blackwell et al., Thromb. Res. 37, 103-114, 1985; cited from earlier work.

“Also recorded” adds a separate entry of the source. Where two headings read alike, the source gives them in different places.

This is an account of results in patent US5654321A, “2-chloro-3-arylamino-1,4-naphthoquinone derivatives, process for preparation thereof and use thereof as an agent for inhibiting platelet aggregation” (Dong Kook Pharmaceutical Co. Ltd., priority 1996, dated 1997).

Take `CC1=C(Cl)C(=O)c2ccccc2C1=O` [2-chloro-3-methyl-1,4-naphthoquinone]: the “inhibition of platelet aggregation in rabbit (in words)” value with rabbit platelet is “inhibits the platelet aggregation in rabbit”.

In the case of `N#Cc1ccc(NC2=C(Cl)C(=O)c3ccccc3C2=O)cc1` [NQ-Y15, 2-chloro-3-[(4-cyanophenyl)-amino]-1,4-naphthoquinone], the “Thromboxane B2” value in data set [1] (NQ-Y15 10 μM + collagen) stood at 78.33 ± 11.85 ng/mL; in data set [1] (NQ-Y15 30 μM + collagen), 15.30 ± 2.84 ng/mL; in data set [1] (NQ-Y15 50 μM + collagen) it was 8.50 ± 1.81 ng/mL. In addition, the inhibition at 30 µM in data set [1] (Rattus norvegicus, Platelet, 30 μM, read-out: inhibitory effect on the increase in thromboxane A2 production induced by collagen) stood at 15.5%. The inhibition at 50 µM in data set [1] (Rattus norvegicus, Platelet, 50 μM, read-out: inhibitory effect on the increase in thromboxane A2 production induced by collagen) is 86.3%. Further, the IC50 with washed platelet [2] (Rattus norvegicus, Platelet, A23187 2 μM, 8 min pre-treatment (FIG. 3)) is roughly 100 µM; with washed platelet [2] (Rattus norvegicus, Platelet, collagen 10 μg/ml, 8 min pre-treatment (FIG. 2)), roughly 7 µM; with washed platelet [2] (Rattus norvegicus, Platelet, thrombin 0.1U/ml, 8 min pre-treatment (FIG. 1)), roughly 38 µM. In the data set with washed platelet [2] (Rattus norvegicus, Platelet, agonist not stated, read-out: concentration to completely inhibit the platelet aggregation), the IC100 worked out at 100 µM. In the data set on washed platelet [2] (thrombin, collagen and A23187, FIGS. 1 to 3), the “inhibition of platelet aggregation induced by platelet agonists (in words)” value is reported as “inhibits the platelet aggregation induced by platelet agonists dependent upon its concentration”. In addition, the “inhibition of serotonin secretion increased by collagen (in words)” value in data set [3] (collagen, within concentration range inhibiting platelet aggregation (FIG. 5)) is “inhibits the serotonin secretion”. In addition, the “inhibition of serotonin secretion increased by thrombin (in words)” value in data set [3] (thrombin, within concentration range inhibiting platelet aggregation (FIG. 4)) was “inhibits the serotonin secretion increased by thrombin”. For the same compound, the “Concentration of LDH” value in the data set with washed platelet [4] (0 min, DMSO 6.13 ± 1.13) is on record as 2.87 ± 0.12 U/L; with washed platelet [4] (10 min, DMSO 5.73 ± 2.54) it was 4.57 ± 1.05 U/L; in the data set with washed platelet [4] (20 min, DMSO 8.25 ± 1.85), 5.47 ± 0.52 U/L; in the data set on washed platelet [4] (40 min, DMSO 9.77 ± 1.37), 8.47 ± 0.43 U/L; in the data set with washed platelet [4] (80 min, DMSO 12.20 ± 1.74) it was 11.55 ± 0.05 U/L; with washed platelet [4] (120 min, DMSO 14.83 ± 1.39), 16.67 ± 1.24 U/L. The “LDH excretion versus control group / cytotoxicity (in words)” value in the data set on washed platelet [4] (0.1 mM, pre-treated for 120 minutes) is recorded as “does not show any significant difference from the control group; also recorded: does not cause a cytotoxicity even at high concentration”.

On to `CC1=CC(=O)c2ccccc2C1=O` [vitamin K3, menadione], for which the “inhibition of platelet aggregation in human being (in words)” value in the data set on human platelet is recorded as “has an effect on inhibition of platelet aggregation in human being”.

Triton X-100 [reference compound]: the “Concentration of LDH” value was 426.40 ± 9.64 U/L with washed platelet [4] (0 min, DMSO 6.13 ± 1.13); 443.07 ± 1.27 U/L in the data set on washed platelet [4] (10 min, DMSO 5.73 ± 2.54); 444.93 ± 4.97 U/L with washed platelet [4] (20 min, DMSO 8.25 ± 1.85); 442.20 ± 0.87 U/L in the data set on washed platelet [4] (40 min, DMSO 9.77 ± 1.37); 443.73 ± 0.37 U/L in the data set on washed platelet [4] (80 min, DMSO 12.20 ± 1.74); 443.30 ± 2.53 U/L with washed platelet [4] (120 min, DMSO 14.83 ± 1.39).
